Experimental findings from patent publication US9056843B2, “Trifluoromethyl-oxadiazole derivatives and their use in the treatment of disease” (NOVARTIS AG, priority 2011, dated 2015) are described below.

Assay type in all cases: biochemical
In one experiment the target is Human recombinant HDAC4 (Homo sapiens (Human), UniProt P56524). The experiment is described as follows: Test 2: HDAC4 assay (fluorogenic substrate, 5 μM acetyl-Gly-Ala-Lys(ε-trifluoroacetyl)-AMC). The following applies: Test 2 (values without asterisk). Here is the method: Test 2: HDAC4 Assay Description
(§1) Control wells with HDAC4 only (positive control) and without HDAC4 (negative control) were included on the microplate. Bovine trypsin (4.5 μl of a 300 nM solution) was added and the plate incubated for additional 15 minutes at room temperature. The plate was placed in a fluorescence microplate reader, and read at an excitation wavelength of 360 nm and an emission wavelength of 450 nm with a 10 nm bandpath. Fluorescence values for all wells containing HDAC4 (positive control and wells with test compound) were corrected by subtracting negative control fluorescence values, and IC50 values were calculated by fitting the dose-response curves to a 4-parameter logistic function.

Experiment [1] deals with Human recombinant full length HDAC1 (Homo sapiens (Human), UniProt Q13547). The experiment in a line: Test 3: HDAC1 assay. The following applies: substrate 5 μM acetyl-Gly-Ala-Lys(acetyl)-AMC. As for the experimental part:
as §1
Test 3: HDAC1 Assay Description
A similar assay procedure as described in Test 2 was used for HDAC1. Human recombinant full length HDAC1 expressed in a baculovirus expression system was purchased from BPS BioSciences (San Diego, Calif., U.S.A.). The substrate used in the […] assay was 5 μM of acetyl-Gly-Ala-Lys(acetyl)-AMC.

For experiment [2], the target named is Human recombinant full length HDAC6 (Homo sapiens (Human), UniProt Q9UBN7). The experiment in a line: Test 4: HDAC6 assay. The following applies: Test 4; substrate 5 μM acetyl-Gly-Ala-Lys(acetyl)-AMC. Here is the method: as §1
Test 4: HDAC6 Assay Description
A similar assay procedure as described in Test 2 was used for HDAC6. Human recombinant full length HDAC6 expressed in a baculovirus expression system was purchased from BPS BioSciences (San Diego, Calif., U.S.A.). The substrate used in the […] assay was 5 μM of acetyl-Gly-Ala-Lys(acetyl)-AMC.

Sequence of Human recombinant HDAC4 (P56524 2-1084): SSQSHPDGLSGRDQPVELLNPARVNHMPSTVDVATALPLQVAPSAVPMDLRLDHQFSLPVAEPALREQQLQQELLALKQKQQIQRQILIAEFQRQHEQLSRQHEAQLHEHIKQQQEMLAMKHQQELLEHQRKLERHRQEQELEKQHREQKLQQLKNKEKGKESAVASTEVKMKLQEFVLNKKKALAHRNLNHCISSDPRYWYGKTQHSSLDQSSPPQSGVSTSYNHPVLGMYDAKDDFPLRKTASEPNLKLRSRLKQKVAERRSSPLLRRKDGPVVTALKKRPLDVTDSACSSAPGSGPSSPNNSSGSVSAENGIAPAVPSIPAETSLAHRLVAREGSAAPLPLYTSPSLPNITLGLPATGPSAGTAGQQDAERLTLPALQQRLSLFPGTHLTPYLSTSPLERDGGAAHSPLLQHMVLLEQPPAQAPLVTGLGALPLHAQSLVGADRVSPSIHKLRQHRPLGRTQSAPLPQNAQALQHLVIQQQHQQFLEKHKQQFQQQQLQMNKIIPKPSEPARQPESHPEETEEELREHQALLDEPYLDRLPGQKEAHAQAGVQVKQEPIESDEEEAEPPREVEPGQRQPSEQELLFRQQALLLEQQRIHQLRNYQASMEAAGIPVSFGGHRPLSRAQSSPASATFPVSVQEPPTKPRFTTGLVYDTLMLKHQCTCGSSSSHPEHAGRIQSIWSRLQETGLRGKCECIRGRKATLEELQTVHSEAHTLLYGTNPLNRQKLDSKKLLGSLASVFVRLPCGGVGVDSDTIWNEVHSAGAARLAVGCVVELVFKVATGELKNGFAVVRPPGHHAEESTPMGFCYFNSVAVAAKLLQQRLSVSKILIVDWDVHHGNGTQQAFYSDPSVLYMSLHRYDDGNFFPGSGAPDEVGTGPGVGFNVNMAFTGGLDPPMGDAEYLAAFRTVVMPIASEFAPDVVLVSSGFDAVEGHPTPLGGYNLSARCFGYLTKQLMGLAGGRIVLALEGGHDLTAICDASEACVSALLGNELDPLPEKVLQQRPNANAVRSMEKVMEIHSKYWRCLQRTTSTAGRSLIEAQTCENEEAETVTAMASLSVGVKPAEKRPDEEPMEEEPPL
Sequence of Human recombinant full length HDAC6 (Q9UBN7 whole entry): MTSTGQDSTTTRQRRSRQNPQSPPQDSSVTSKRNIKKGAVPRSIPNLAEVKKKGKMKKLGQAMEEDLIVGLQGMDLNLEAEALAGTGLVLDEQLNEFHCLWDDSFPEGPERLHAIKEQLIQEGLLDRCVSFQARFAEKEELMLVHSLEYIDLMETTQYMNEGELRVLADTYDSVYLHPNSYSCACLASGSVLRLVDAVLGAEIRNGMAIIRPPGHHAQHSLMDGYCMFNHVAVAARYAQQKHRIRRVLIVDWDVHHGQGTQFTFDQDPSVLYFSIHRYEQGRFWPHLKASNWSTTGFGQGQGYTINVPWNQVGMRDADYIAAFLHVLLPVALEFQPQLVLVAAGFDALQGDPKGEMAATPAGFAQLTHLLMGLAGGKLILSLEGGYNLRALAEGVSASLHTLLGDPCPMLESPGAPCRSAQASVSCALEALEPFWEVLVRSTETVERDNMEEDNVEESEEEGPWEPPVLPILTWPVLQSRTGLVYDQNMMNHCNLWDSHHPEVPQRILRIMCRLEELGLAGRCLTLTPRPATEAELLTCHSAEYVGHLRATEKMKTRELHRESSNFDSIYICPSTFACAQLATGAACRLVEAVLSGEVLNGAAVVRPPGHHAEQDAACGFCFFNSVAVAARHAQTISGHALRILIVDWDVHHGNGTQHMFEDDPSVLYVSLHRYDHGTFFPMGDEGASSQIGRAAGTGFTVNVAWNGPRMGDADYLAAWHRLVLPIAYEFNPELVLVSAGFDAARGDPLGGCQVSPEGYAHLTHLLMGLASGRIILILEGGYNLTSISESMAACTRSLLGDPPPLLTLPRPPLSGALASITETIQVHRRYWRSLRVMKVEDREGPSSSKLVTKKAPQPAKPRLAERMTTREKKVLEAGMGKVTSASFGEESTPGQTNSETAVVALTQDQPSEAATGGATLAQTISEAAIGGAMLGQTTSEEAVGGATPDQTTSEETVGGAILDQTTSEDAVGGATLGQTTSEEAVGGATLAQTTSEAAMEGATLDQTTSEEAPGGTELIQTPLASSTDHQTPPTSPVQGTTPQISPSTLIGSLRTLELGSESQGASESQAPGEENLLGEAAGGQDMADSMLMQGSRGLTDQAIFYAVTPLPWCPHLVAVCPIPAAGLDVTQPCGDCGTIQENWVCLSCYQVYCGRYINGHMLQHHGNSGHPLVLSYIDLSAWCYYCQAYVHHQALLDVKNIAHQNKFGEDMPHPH
Sequence of Human recombinant full length HDAC1 (Q13547 whole entry): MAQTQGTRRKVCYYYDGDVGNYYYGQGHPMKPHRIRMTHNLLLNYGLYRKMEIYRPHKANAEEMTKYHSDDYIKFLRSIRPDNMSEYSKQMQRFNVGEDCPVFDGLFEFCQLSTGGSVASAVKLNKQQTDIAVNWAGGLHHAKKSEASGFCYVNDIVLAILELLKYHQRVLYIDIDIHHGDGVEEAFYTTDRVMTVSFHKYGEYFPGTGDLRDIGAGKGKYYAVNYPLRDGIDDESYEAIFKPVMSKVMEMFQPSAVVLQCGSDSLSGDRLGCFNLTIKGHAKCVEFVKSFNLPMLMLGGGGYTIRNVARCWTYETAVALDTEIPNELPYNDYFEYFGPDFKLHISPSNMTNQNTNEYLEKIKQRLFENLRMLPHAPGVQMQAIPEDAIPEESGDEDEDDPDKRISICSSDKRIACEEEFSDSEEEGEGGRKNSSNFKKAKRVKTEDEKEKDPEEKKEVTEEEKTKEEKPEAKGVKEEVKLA

By IC50 is commonly meant the concentration that inhibits the measured activity by half. On to `COCCNC(=O)c1ccc(-c2noc(C(F)(F)F)n2)cc1` [Example 16, N-(2-methoxyethyl)-4-(5-(trifluoromethyl)-1,2,4-oxadiazol-3-yl)benzamide], for which the IC50 at Human recombinant HDAC4 was 1.4 µM; in experiment [1], > 10 µM; in experiment [2], 6.8 µM.
On the same counts, the results for `O=C(NCCO)c1ccc(-c2noc(C(F)(F)F)n2)cc1` [Example 13, N-(2-hydroxyethyl)-4-(5-(trifluoromethyl)-1,2,4-oxadiazol-3-yl)benzamide] are 0.66 µM, > 10 µM and 8.9 µM.
Take `O=C(NCc1ccc(CN2CCOCC2)cc1)c1ccc(-c2noc(C(F)(F)F)n2)cc1` [Example 44, N-(4-(morpholinomethyl)benzyl)-4-(5-(trifluoromethyl)-1,2,4-oxadiazol-3-yl)benzamide]: the IC50 at Human recombinant HDAC4 is 0.38 µM; in experiment [1], > 10 µM; in experiment [2], 5.7 µM.
Regarding `O=S(=O)(Nc1ccc(Cl)cc1)c1ccc(-c2noc(C(F)(F)F)n2)cc1` [Example 110, N-(4-chlorophenyl)-4-(5-(trifluoromethyl)-1,2,4-oxadiazol-3-yl)benzenesulfonamide], the values for the IC50 (at Human recombinant HDAC4; in experiment [1]; in experiment [2]) were 0.2 µM, > 10 µM and 2 µM, respectively.
With `CN(C)CCN(C)S(=O)(=O)c1ccc(-c2noc(C(F)(F)F)n2)cc1` [Example 99, N-(2-(dimethylamino)ethyl)-N-methyl-4-(5-(trifluoromethyl)-1,2,4-oxadiazol-3-yl)benzenesulfonamide], the values for the concentration for half-maximal inhibition (IC50) (at Human recombinant HDAC4; in experiment [1]; in experiment [2]) were 1.35 µM, > 10 µM and 9.9 µM, respectively.
On the same counts, the results for `CC(CNC(=O)c1ccc(-c2noc(C(F)(F)F)n2)cc1)N(C)C` (stereo not drawn) [Example 51, N-(2-(dimethylamino)propyl)-4-(5-(trifluoromethyl)-1,2,4-oxadiazol-3-yl)benzamide] are 0.09 µM, > 10 µM and 10 µM.
For `CC(CNC(=O)c1ccc(-c2noc(C(F)(F)F)n2)cc1F)N(C)C` (stereo not drawn) [Example 122, N-(2-(dimethylamino)propyl)-2-fluoro-4-(5-(trifluoromethyl)-1,2,4-oxadiazol-3-yl)benzamide], the values for the IC50 (on Human recombinant HDAC4; in experiment [1]; in experiment [2]) were 0.085 µM, 9 µM and 2.4 µM, respectively.
On the same counts, the results for `CC(CO)NC(=O)c1ccc(-c2noc(C(F)(F)F)n2)cc1F` (stereo not drawn) [Example 91, 2-fluoro-N-(1-hydroxyypropan-2-yl)-4-(5-(trifluoromethyl)-1,2,4-oxadiazol-3-yl)benzamide] are 0.5 µM, > 10 µM and 5.1 µM.
On the same counts, the results for `CN(C)S(=O)(=O)c1ccc(-c2noc(C(F)(F)F)n2)cc1` [Example 114, N,N-dimethyl-4-(5-(trifluoromethyl)-1,2,4-oxadiazol-3-yl)benzenesulfonamide] are 0.63 µM, > 10 µM and 9.1 µM.
On the same counts, the results for `COCCCNC(=O)c1ccc(-c2noc(C(F)(F)F)n2)cc1` [Example 21, N-(3-methoxyypropyl)-4-(5-(trifluoromethyl)-1,2,4-oxadiazol-3-yl)benzamide] are 0.73 µM, > 10 µM and 5.7 µM.
For `O=C(c1ccc(-c2noc(C(F)(F)F)n2)cc1)N1CCN(c2ccccc2)CC1` [Example 42, (4-phenylpiperazin-1-yl)(4-(5-(trifluoromethyl)-1,2,4-oxadiazol-3-yl)phenyl)methanone], the IC50 on Human recombinant HDAC4 is 4.2 µM; in experiment [1], > 10 µM; in experiment [2], > 10 µM.
On to `CC(C)C[C@H](CN(C)C)NC(=O)c1ccc(-c2noc(C(F)(F)F)n2)cc1` [Example 85, (R)—N-(1-(dimethylamino)-4-methylpentan-2-yl)-4-(5-(trifluoromethyl)-1,2,4-oxadiazol-3-yl)benzamide], for which the IC50 was 0.048 µM on Human recombinant HDAC4, > 10 µM in experiment [1] and > 10 µM in experiment [2].
On to `CCNC(=O)c1ccc(-c2noc(C(F)(F)F)n2)cc1` [Example 12, N-ethyl-4-(5-(trifluoromethyl)-1,2,4-oxadiazol-3-yl)benzamide], for which the values for the IC50 (at Human recombinant HDAC4; in experiment [1]; in experiment [2]) were 0.43 µM, > 10 µM and 4.1 µM, respectively.
Consider `Cc1cc(NC(=O)c2ccc(-c3noc(C(F)(F)F)n3)cc2F)cc(C)n1` [Example 90, N-(2,6-dimethylpyridin-4-yl)-2-fluoro-4-(5-(trifluoromethyl)-1,2,4-oxadiazol-3-yl)benzamide], for which the IC50 is 0.44 µM on Human recombinant HDAC4, > 10 µM in experiment [1] and 2.5 µM in experiment [2].
Consider `CNC(=O)c1ccc(-c2noc(C(F)(F)F)n2)cc1` [Example 2, N-Methyl-4-(5-(trifluoromethyl)-1,2,4-oxadiazol-3-yl)benzamide], for which the IC50 at Human recombinant HDAC4 is 0.53 µM; in experiment [1], > 10 µM; in experiment [2], 3.2 µM.
`CC(CN(C)C)NC(=O)c1ccc(-c2noc(C(F)(F)F)n2)cc1` (stereo not drawn) [Example 53, N-(1-(dimethylamino)propan-2-yl)-4-(5-(trifluoromethyl)-1,2,4-oxadiazol-3-yl)benzamide]: the IC50 was 0.026 µM at Human recombinant HDAC4, > 10 µM in experiment [1] and > 10 µM in experiment [2].
Take `CCC(CO)NC(=O)c1ccc(-c2noc(C(F)(F)F)n2)cc1` (stereo not drawn) [Example 56, N-(1-tetrahydroxy-2 H-butan-2-yl)-4-(5-(trifluoromethyl)-1,2,4-oxadiazol-3-yl)benzamide]: the IC50 at Human recombinant HDAC4 is 0.55 µM; in experiment [1], > 10 µM; in experiment [2] it was 6.8 µM.
As to `O=C(N[C@H]1CCNC1)c1ccc(-c2noc(C(F)(F)F)n2)cc1` [Example 87, (S)—N-(pyrrolidin-3-yl)-4-(5-(trifluoromethyl)-1,2,4-oxadiazol-3-yl)benzamide], the IC50 at Human recombinant HDAC4 worked out at 0.3 µM.
`C[C@H](CN(C)C)NC(=O)c1ccc(-c2noc(C(F)(F)F)n2)cc1` [Example 81, (R)—N-(1-(dimethylamino)propan-2-yl)-4-(5-(trifluoromethyl)-1,2,4-oxadiazol-3-yl)benzamide]: the IC50 at Human recombinant HDAC4 was 0.034 µM; in experiment [1], > 10 µM; in experiment [2], > 10 µM.
Regarding `CC(C)(C)OC(=O)N1CCC(NC(=O)c2ccc(-c3noc(C(F)(F)F)n3)cc2)C1` (stereo not drawn) [Example 66, Tert-butyl 3-(4-(5-(trifluoromethyl)-1,2,4-oxadiazol-3-yl)benzamido)pyrrolidine-1-carboxylate], the IC50 was 0.33 µM at Human recombinant HDAC4, > 10 µM in experiment [1] and 5.8 µM in experiment [2].
In the case of `O=S(=O)(Nc1ccccc1F)c1ccc(-c2noc(C(F)(F)F)n2)cc1` [Example 111, N-(2-fluorophenyl)-4-(5-(trifluoromethyl)-1,2,4-oxadiazol-3-yl)benzenesulfonamide], the IC50 at Human recombinant HDAC4 is 0.29 µM; in experiment [1], > 10 µM; in experiment [2], 0.58 µM.
On the same counts, the results for `CCOC(=O)CNC(=O)Cc1ccc(-c2noc(C(F)(F)F)n2)cc1` [Example 8, Ethyl 2-(2-(4-(5-(trifluoromethyl)-1,2,4-oxadiazol-3-yl)phenyl)acetamido)acetate] are 0.58 µM, > 10 µM and 7.6 µM.
For `N#Cc1cc(NC(=O)c2ccc(-c3noc(C(F)(F)F)n3)cc2)ccn1` [Example 73, N-(2-cyanopyridin-4-yl)-4-(5-(trifluoromethyl)-1,2,4-oxadiazol-3-yl)benzamide], the IC50 on Human recombinant HDAC4 is 0.053 µM; in experiment [1], > 10 µM; in experiment [2], 6.1 µM.
On the same counts, the results for `CN(C)C[C@H](Cc1ccccc1)NC(=O)c1ccc(-c2noc(C(F)(F)F)n2)cc1` [Example 93, (S)—N-(1-(dimethylamino)-3-phenylpropan-2-yl)-4-(5-(trifluoromethyl)-1,2,4-oxadiazol-3-yl)benzamide] are 0.19 µM, > 10 µM and 4.9 µM.
On the same counts, the results for `O=C(Nc1ccnc(F)c1)c1ccc(-c2noc(C(F)(F)F)n2)cc1` [Example 71, N-(2-fluoropyridin-4-yl)-4-(5-(trifluoromethyl)-1,2,4-oxadiazol-3-yl)benzamide] are 0.92 µM, > 10 µM and > 10 µM.
In the case of `CNCCNC(=O)c1ccc(-c2noc(C(F)(F)F)n2)cc1` [Example 157, N-(2-(methylamino)ethyl)-4-(5-(trifluoromethyl)-1,2,4-oxadiazol-3-yl)benzamide], the IC50 on Human recombinant HDAC4 came to 0.04 µM; in experiment [1] it was 6.1 µM; in experiment [2], 3.4 µM.
For `CCCN(CCC)C[C@@H](C)NC(=O)c1ccc(-c2noc(C(F)(F)F)n2)cc1` [Example 137, (R)—N-(1-(dipropylamino)propan-2-yl)-4-(5-(trifluoromethyl)-1,2,4-oxadiazol-3-yl)benzamide], the results for the IC50 in experiment [1] and in experiment [2] were 2.2 µM and 3 µM, respectively.
